According to patent publication US9618501B2, “Three-dimensional fibrous scaffolds for cell culture” (University of South Florida, priority 2012, dated 2017):
Like-named read-outs stand apart in the source and are kept apart here.

How the values were obtained:
Assay type in all cases: cell-based
LLC spheroids [1] = assay: Drug efficacy on LLC spheroids grown on 3P scaffold (spheroid size and number)
Procedure: Drug efficacy analysis using 3P scaffold: To assess the ability of the 3P scaffold to monitor therapeutic efficacy to treat tumors, LLC spheroids were treated with different concentrations of the PI3K pathway inhibitor Ly294002 (1.0 μM, 0.1 μM, and 0.01 μM) and spheroid viability was assessed over a time period of 24 hours to 96 hours.

MCF-7 cells [2] = assay: Dose dependent cytotoxic response of MCF-7 cells, monolayer vs 3P scaffold (calcein AM/ethidium live cell count); settings: for IC50: Homo sapiens, MCF7, 48 h, 48 hours of drug; for IC50 for 3P cultures relative to monolayer cultures: MCF7 cells, 3P scaffold vs monolayer
Procedure: MCF cells (7×10^3) were cultured on monolayer and 3P scaffold for 7 days then treated with different concentration of LY294002 and U0126 for 48 hours. Cells were stained with calcein/am and ethydium bromide then counted. Mean percentage of live cells (+/−SEM) were plotted as a function of drug concentration on and represents 4 replicates in 3 separate experiments. Box data points indicate monolayer and diamond data points indicate 3P scaffold.
To further explore the utility of the 3P scaffold as a tool to monitor chemotherapeutic prevention of EMT, MCF-7 breast cancer cells were treated with Doxorubicin and Ly294002 and U0126 inhibitors to prevent spheroid formation and examined for a differential dose-dependent response which was compared with response in monolayer 2D culture. […] The IC-50 of a drug is defined as the […] of a drug to inhibit biological or biochemical function.

[3] = test system: biopsy induced tumoroids (BITs); assay: Chemosensitivity of biopsy induced tumoroids (BITs) from FNAs of implanted LLC1 mouse tumors on 3P scaffolds; settings: for IC50: Mus musculus, LLC1
Procedure: FIG. 17 illustrates biopsy tumoroids (day 2) treated with 1 μM each of LY294002 or U0126 for 3 days. The average size of biopsy tumoroids on 3P scaffolds (n=10 controls, 55 LY294002 and 50 U0126) is shown.
Culturing fine needle aspirates (FNAs) of implanted mouse tumors: LLC1 cells (5×10^5) were subcutaneously injected into the flanks of wild type C57BL/6 mice (National Cancer Institute). Tumor formation was monitored for 2 weeks after which tumor biopsies were collected by fine needle aspiration. Briefly, a 23-gauge needle was inserted into the tumor using a rotating motion and the tissue samples were flushed from the needle by attaching a syringe filled with tissue culture medium and expelling the contents into a sterile tube. This process was repeated twice. The three collected tumor samples were pooled and single cell suspensions were cultured on the scaffold.
Chemosensitivity of tumor biopsies grown on 3P scaffolds: To determine if the 3P scaffold can be utilized to culture tumor biopsies, single-cell suspensions of FNAs of implanted mouse tumors were cultured on 3P scaffolds. […] In addition to tumor cells, BITs were examined for the presence of stromal cells that are typical of in vivo tumor microenvironment (TME) (Mallela et al., (2013) Stem Cells 31: 1321-1329) by immunostaining with antibodies to respective cell surface markers.
To determine if the biopsy tumoroids cultured on 3P scaffolds can be utilized to assess drug sensitivity, FNA tumoroids were cultured in the presence or absence of the inhibitors, LY294002 and U0126.

MCF-7 cells [4] = assay: Inhibition of spheroid formation and EMT markers in MCF-7 cells on 3P scaffold
Procedure: (§1) To determine if treatment by these agents would deregulate EMT in fully formed spheroids, the same concentration of drugs were administered to LLC spheroids cultured at day 4.

LLC spheroids [5] = assay: EMT marker expression in fully formed LLC spheroids treated at day 4
Procedure: as §1

tumor cells = assay: Doxorubicin sensitivity of tumor cells grown on 3PC scaffolds vs monolayer
Procedure: It was also determined that PLGA naked scaffolds are biocompatible and show increased tumorigenesis potential. From these observations, one can conclude that these 3D matrices can be used as a model to study cancer.

[6] = 0.01 μM, 24 hours post treatment
[7] = 0.01 μM, 96 hours post treatment
[8] = 0.1 μM, 24 hours post treatment
[9] = 1.0 μM, 24 hours post treatment
[10] = MCF-7 on 3P scaffold, read-out: IC-50
[11] = MCF-7 on monolayer, read-out: IC-50

O=c1cc(N2CCOCC2)oc2c(-c3ccccc3)cccc12 [LY294002]
average decrease in spheroid size compared to untreated spheroids (LLC spheroids [1]; [6]): 17+/−12.5% | decrease in spheroid numbers (LLC spheroids [1]; [6]): 14.5+/−8.52% | decrease in spheroid numbers (LLC spheroids [1]; 0.01 μM, 48 hours): 40.3+/−2.44% | average decrease in spheroid size (LLC spheroids [1]; 0.01 μM, 48 hours post treatment): 28.9+/−9.3% | average decrease in spheroid size (LLC spheroids [1]; [7]): 63+/−5.9% | decrease in spheroid numbers (LLC spheroids [1]; [7]): 93.3+/−0.48% | average decrease in spheroid size compared to untreated spheroids (LLC spheroids [1]; [8]): 22.0+/−10.9% | decrease in spheroid numbers (LLC spheroids [1]; [8]): 26.8+/−4.38% | decrease in spheroid numbers (LLC spheroids [1]; 0.1 μM, 48 hours): 52.6+/−2.93% | average decrease in spheroid size (LLC spheroids [1]; 0.1 μM, 48 hours post treatment): 32.6+/−5.97% | average decrease in spheroid size compared to untreated spheroids (LLC spheroids [1]; [9]): 37.3+/−8.4% | decrease in spheroid numbers (LLC spheroids [1]; [9]): 37.4+/−3.8% | decrease in spheroid numbers (LLC spheroids [1]; 1.0 μM, 48 hours): 61.7+/−2.92% | average decrease in spheroid size (LLC spheroids [1]; 1.0 μM, 48 hours post treatment): 51.2+/−6.73% | IC50 (MCF-7 cells [2]; [10]): 1150 nM | IC50 (MCF-7 cells [2]; [11]): 130 nM | IC50 for 3P cultures relative to monolayer cultures (MCF-7 cells [2]): 10 fold | IC50 ([3]; biopsy tumoroids (BITs) on 3P scaffold, read-out: IC50): > 1000 nM

N#CC(=C(/N)Sc1ccccc1N)/C(C#N)=C(\N)Sc1ccccc1N [U0126]
IC50 (MCF-7 cells [2]; MCF-7 on 3P scaffold): 106 nM | IC50 (MCF-7 cells [2]; MCF-7 on monolayer): 10.6 nM | IC50 for 3P cultures relative to monolayer cultures (MCF-7 cells [2]): 100 fold | spheroid formation and proliferation on 3P scaffolds (MCF-7 cells [4]; MCF-7 treated after 24 hours of culture, observed on day 4): prevented spheroid formation and proliferation | vimentin and E-cadherin expression (MCF-7 cells [4]; cells on 3P scaffold treated after 24 hours of culture): down regulating vimentin while maintaining E-cadherin expression | vimentin and E-cadherin expression (EMT inhibition) (LLC spheroids [5]): lack of vimentin expression and a concomitant expression of E-cadherin | growth of BITs ([3]; FNA tumoroids on 3P scaffold cultured with inhibitor): decreases in tumoroid size | IC50 [3]: > 1000 nM

COc1cccc2c1C(=O)c1c(O)c3c(c(O)c1C2=O)C[C@@](O)(C(=O)CO)C[C@@H]3O[C@H]1C[C@H](N)[C@H](O)[C@H](C)O1 [doxorubicin]
IC50 (MCF-7 cells [2]; [10]): 12000 nM | IC50 (MCF-7 cells [2]; [11]): 600 nM | sensitivity of tumor cells compared to cells grown on monolayer (tumor cells): less sensitive
